Data from patent US10351522B2, “Sulfonamide derivative and pharmaceutically acceptable acid addition salt thereof” (UNIVERSITY OF TSUKUBA, priority 2015, dated 2019).
Read-outs that look alike come from different tables or passages of the source.

Experiments:
human OX1R = target: T1, human OX1R (Homo sapiens, UniProt O43613); assay: Agonist activity against OX1R: intracellular calcium (Fura-2AM, FDSS7000) in CHOOX1R cells; format: cell-based; settings: for Emax at 0.1 µM / Emax at 1 µM / Emax at 10 µM: read-out: Response (%) OX1R
T1 construct: expressed in transfected cells; host or cells: CHO (Chinese hamster ovary) cells, line CHOOX1R, co-expressing NFAT-luciferase
T1 sequence (O43613 1-425): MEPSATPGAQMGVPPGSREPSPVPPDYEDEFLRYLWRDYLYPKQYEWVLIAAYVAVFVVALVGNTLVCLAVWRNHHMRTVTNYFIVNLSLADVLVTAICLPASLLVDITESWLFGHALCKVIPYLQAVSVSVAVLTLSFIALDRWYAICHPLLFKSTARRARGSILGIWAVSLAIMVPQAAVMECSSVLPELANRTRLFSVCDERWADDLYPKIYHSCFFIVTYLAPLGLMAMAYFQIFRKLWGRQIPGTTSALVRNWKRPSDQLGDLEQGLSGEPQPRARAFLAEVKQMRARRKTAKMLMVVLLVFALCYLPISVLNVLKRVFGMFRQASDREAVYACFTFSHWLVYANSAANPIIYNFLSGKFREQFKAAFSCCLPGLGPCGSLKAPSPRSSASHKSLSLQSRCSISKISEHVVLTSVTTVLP
Outline: (§1)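 CHO cells stably expressing human OX1R or OX2R (plus NFAT-luciferase) were loaded with 5 μM Fura-2AM for 60 min, then given compound at 10^−7 to 10^−5 M final (1% DMSO). Calcium change read as 340/380 nm excitation fluorescence ratio; response expressed as % of orexin-A maximal activity at 10, 1.0 and 0.1 μM.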

human OX2R = target: T2, human OX2R (Homo sapiens, UniProt O43614); assay: Agonist activity against OX2R: intracellular calcium (Fura-2AM, FDSS7000) in CHOOX2R cells; format: cell-based; settings: relative to orexin-A as full agonist (100%)
T2 construct: expressed in transfected cells; host or cells: CHO (Chinese hamster ovary) cells, line CHOOX2R, co-expressing NFAT-luciferase
T2 sequence (O43614 1-444): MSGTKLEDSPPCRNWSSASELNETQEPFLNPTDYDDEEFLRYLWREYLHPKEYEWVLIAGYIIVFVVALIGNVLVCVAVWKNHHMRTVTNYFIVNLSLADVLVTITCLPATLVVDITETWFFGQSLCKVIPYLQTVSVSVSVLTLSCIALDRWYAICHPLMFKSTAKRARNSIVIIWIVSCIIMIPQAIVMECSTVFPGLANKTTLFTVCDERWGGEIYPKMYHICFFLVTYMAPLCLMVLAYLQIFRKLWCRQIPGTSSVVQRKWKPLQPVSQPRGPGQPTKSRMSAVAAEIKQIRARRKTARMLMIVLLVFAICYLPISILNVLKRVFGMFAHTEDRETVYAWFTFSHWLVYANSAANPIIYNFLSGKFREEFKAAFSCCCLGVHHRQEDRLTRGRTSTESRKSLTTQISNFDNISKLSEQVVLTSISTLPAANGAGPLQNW
Outline: as §1

[1] = test compound 0.1 μM, relative to orexin-A as full agonist (100%)
[2] = test compound 1.0 μM, relative to orexin-A as full agonist (100%)
[3] = test compound 10 μM, relative to orexin-A as full agonist (100%)
[4] = 0.1 μM test compound, relative to orexin-A as full agonist (100%)
[5] = 1.0 μM test compound, relative to orexin-A as full agonist (100%)
[6] = 10 μM test compound, relative to orexin-A as full agonist (100%)

Row | Response (%) OX1R (human OX1R; [1]) [%] | Response (%) OX1R (human OX1R; [2]) [%] | Response (%) OX1R (human OX1R; [3]) [%] | Response (%) OX2R (human OX2R; test compound 0.1 μM) [%] | Response (%) OX2R (human OX2R; test compound 1.0 μM) [%] | Response (%) OX2R (human OX2R; test compound 10 μM) [%] | Response (%) OX2R (human OX2R; 0.1 μM test compound) [%] | Response (%) OX2R (human OX2R; 1.0 μM test compound) [%] | Response (%) OX2R (human OX2R; 10 μM test compound) [%] | Response (%) OX1R (human OX1R; [4]) [%] | Response (%) OX1R (human OX1R; [5]) [%] | Response (%) OX1R (human OX1R; [6]) [%] | Compound | further results
1 | <5 | <5 | 46 | 42 | 100 | 101 | – | – | – | – | – | – | COc1ccc(-c2cccc(C(=O)N(C)C)c2)cc1S(=O)(=O)Nc1cccc(N2CCCN(c3ccccc3)C2=O)c1 [Example 132] | –
2 | – | – | – | – | – | – | <5 | 51 | 78 | – | – | – | COc1ccc(-c2cccc(C(=O)N(C)C)c2)cc1S(=O)(=O)Nc1cccc(NCc2ccccc2)c1 [Example 20, 3′-(N-(3-(benzylamino)phenyl)sulfamoyl)-4′-methoxy-N,N-dimethyl-[1,1′-biphenyl]-3-carboxamide] | Emax at 0.1 µM (human OX1R; [4]): < 5%; Emax at 1 µM (human OX1R; [5]): < 5%; Emax at 10 µM (human OX1R; [6]): 17%
3 | – | – | – | – | – | – | 90 | 126 | 92 | <5 | 24 | 70 | COc1ccc(-c2cccc(C(=O)N(C)C)c2)cc1S(=O)(=O)Nc1cccc(NCc2ccc(C)cc2)c1 [Example 27] | –
4 | – | – | – | – | – | – | 57 | 61 | 48 | <5 | 47 | 82 | COc1ccc(CNc2cccc(NS(=O)(=O)c3cc(-c4cccc(C(=O)N(C)C)c4)ccc3OC)c2)cc1 [Example 22] | –
5 | <5 | <5 | <5 | 7 | 8 | 31 | – | – | – | – | – | – | COc1ccc(-c2cccc(C(=O)N(C)C)c2)cc1S(=O)(=O)Nc1cccc(NS(C)(=O)=O)c1 [Example 89] | –
6 | – | – | – | – | – | – | <5 | 37 | 54 | <5 | <5 | 12 | COc1ccccc1CNc1cccc(NS(=O)(=O)c2cc(-c3cccc(C(=O)N(C)C)c3)ccc2OC)c1 [Example 21] | –
7 | 8 | 7 | 8 | 9 | 32 | 92 | – | – | – | – | – | – | COc1ccc(C(=O)NCCNC(=O)OC(C)(C)C)cc1S(=O)(=O)Nc1cccc(NC(=O)Nc2cccc(N(C)C)c2)c1 [Example 105] | –
8 | 8 | 9 | 7 | 7 | 6 | 39 | – | – | – | – | – | – | COc1ccc(C(=O)NCc2cccnc2)cc1S(=O)(=O)Nc1cccc(NC(=O)Nc2ccc(N(C)C)cc2)c1 [Example 109] | –
9 | <5 | <5 | <5 | 38 | 86 | 109 | – | – | – | – | – | – | CCN(Cc1ccccc1)C(=O)c1ccc(OC)c(S(=O)(=O)Nc2cccc(NC(=O)Nc3ccc(N(C)C)cc3)c2)c1 [Example 110] | –
10 | – | – | – | – | – | – | 54 | 95 | 86 | <5 | 10 | 51 | COc1cccc(CNc2cccc(NS(=O)(=O)c3cc(-c4cccc(C(=O)N(C)C)c4)ccc3OC)c2)c1 [Example 23] | –
11 | – | – | – | – | – | – | <5 | 6 | 23 | 14 | 9 | 12 | COc1ccc(-c2cccc(C(=O)N(C)C)c2)cc1S(=O)(=O)Nc1cccc(NC(=O)c2cccc(Br)c2)c1 [Example 3] | –
12 | – | – | – | – | – | – | 17 | 93 | 102 | <5 | <5 | <5 | COc1ccc(-c2cccc(C(=O)N(C)C)c2)cc1S(=O)(=O)Nc1cccc(NC(=O)Nc2ccccc2N(C)C)c1 [Example 41] | –
13 | 25 | 86 | 84 | 107 | 81 | 72 | – | – | – | – | – | – | COc1ccc(-c2cccc(C(=O)N(C)C)c2)cc1S(=O)(=O)Nc1cccc(N2CCCN(c3ccccc3N(C)C)C2=O)c1 [Example 133] | –
14 | 8 | 7 | 8 | 9 | 7 | 46 | – | – | – | – | – | – | COc1ccc(C(=O)Nc2cccc(N(C)C)c2)cc1S(=O)(=O)Nc1cccc(NC(=O)Nc2cccc(N(C)C)c2)c1 [Example 106] | –
15 | <5 | <5 | <5 | 29 | 84 | 103 | – | – | – | – | – | – | CCCOc1ccc(-c2cccc(C(=O)N(C)C)c2)cc1S(=O)(=O)Nc1cccc(NC(=O)Nc2cccc(N(C)C)c2)c1 [Example 120] | –
16 | – | – | – | – | – | – | 82 | 97 | 100 | <5 | <5 | <5 | COC(=O)c1cccc(NC(=O)Nc2cccc(NS(=O)(=O)c3cc(-c4cccc(C(=O)N(C)C)c4)ccc3OC)c2)c1 [Example 45] | –
17 | – | – | – | – | – | – | 91 | 92 | 60 | <5 | <5 | <5 | COc1ccc(-c2cccc(C(=O)N(C)C)c2)cc1S(=O)(=O)Nc1cccc(NC(=O)Nc2cccc([N+](=O)[O-])c2)c1 [Example 57] | –
18 | <5 | <5 | <5 | 20 | 89 | 111 | – | – | – | – | – | – | CCN(Cc1ccccc1)C(=O)c1ccc(OC)c(S(=O)(=O)Nc2cccc(NC(=O)Nc3cccc(N(C)C)c3)c2)c1 [Example 101] | –
19 | 9 | 8 | 9 | 11 | 36 | 71 | – | – | – | – | – | – | CN(C)C(=O)c1cccc(-c2ccc(Cl)c(S(=O)(=O)Nc3cccc(NC(=O)Nc4cccc(N(C)C)c4)c3)c2)c1 [Example 118] | –
20 | – | – | – | 16 | 77 | 85 | – | – | – | – | – | – | COc1ccc(-c2cccc(C(=O)N(C)C)c2)cc1S(=O)(=O)Nc1cccc(N2CCN(C(=O)c3cccc(C)c3)C2)c1 [Example 93, 4′-methoxy-N,N-dimethyl-3′-(N-(3-(3-(3-methylbenzoyl)imidazolidin-1-yl)phenyl)sulfamoyl)-[1,1′-biphenyl]-3-carboxamide] | Emax at 0.1 µM (human OX1R; [1]): 10%; Emax at 1 µM (human OX1R; [2]): 9%; Emax at 10 µM (human OX1R; [3]): 20%
21 | – | – | – | – | – | – | 74 | 101 | 115 | <5 | <5 | 8 | COc1ccc(-c2cccc(C(=O)N(C)C)c2)cc1S(=O)(=O)Nc1cccc(NC(=O)Nc2ccccc2[N+](=O)[O-])c1 [Example 46] | –

Row | Compound | Response (%) OX1R (human OX1R; [1]) [%] | Response (%) OX1R (human OX1R; [2]) [%] | Response (%) OX1R (human OX1R; [3]) [%] | Response (%) OX2R (human OX2R; test compound 0.1 μM) [%] | Response (%) OX2R (human OX2R; test compound 1.0 μM) [%] | Response (%) OX2R (human OX2R; test compound 10 μM) [%] | Response (%) OX2R (human OX2R; 0.1 μM test compound) [%] | Response (%) OX2R (human OX2R; 1.0 μM test compound) [%] | Response (%) OX2R (human OX2R; 10 μM test compound) [%] | Response (%) OX1R (human OX1R; [4]) [%] | Response (%) OX1R (human OX1R; [5]) [%] | Response (%) OX1R (human OX1R; [6]) [%] | further results
22 | COc1ccc(-c2cccc(C(=O)N(C)C)c2)cc1S(=O)(=O)Nc1cccc(NC(=O)Nc2cccc(N(C)C)c2)c1OC [Example 123, 3′-(N-(3-(3-(3-(dimethylamino)phenyl)ureido)-2-methoxyphenyl)sulfamoyl)-4′-methoxy-N,N-dimethyl-[1,1′-biphenyl]-3-carboxamide] | – | – | – | 63 | 111 | 111 | – | – | – | – | – | – | Emax at 0.1 µM (human OX1R): < 5%; Emax at 1 µM (human OX1R): 6%; Emax at 10 µM (human OX1R): < 5%
